# Values joined by “and” are separate entries in the source; they are usually repeats but may differ in a detail not shown here. Identical values can stand only once.
# How the values were obtained:
# [1] = system: cells cultured in stage 1 and stage 2 differentiation media; assay: Two further HD-DoE models optimized for SOX10 (IGF-1, FGF-2, AGN193109); format: cell-based, human; details: two other models optimized for SOX10
# Description: According to literature, proteins such as FGF-2, IGF-1, PDGF-AA and NT-3 play an important role in oligodendrocyte differentiation (Goldman and Kuypers (2015) Development 142:3983-95). In the first model, FGF-2 had positive regulatory impact only on the expression level of SOX10 and IGF-1 on PDGFRa. Therefore, to further understand the impact of IGF-1 and FGF-2 on differentiation of cells and confirm their positive role, we included these factors in two other models and optimized the models for maximum expression of SOX10. This gene is one of the main transcription factors of oligodendrocytes, along with OLIG2 and NKX2-2 that has shown the potential to commit the stem cells to oligodendrocytes in reprogramming efforts (Wang et al, (2014) Proc Natl Arad Sri USA 111:E2885-94; García-León et al. (2018) Stem Cell Reports 10:655-672).
# pre-OPCs [2] = assay: HD-DoE 8-factor model for stage 2 (version 2) on pre-OPCs; format: cell-based, human; details: positive
# Description: To engineer the recipe of stage 2 of differentiation, cells were first cultured in the stage 1 media described in Example 1, then, 48 or 96 different combinations of effectors generated using Design-of-Experiments compression through D-optimality were robotically prepared. The effector combinations were prepared in a basal media and were subsequently added to the cells, which were then allowed to differentiate. Three days later RNA extraction was performed, and gene expression was obtained using quantitative PCR analysis. The data was normalized and modeled using partial least squares regression analysis to the effector design, resulting in the generation of gene-specific models, which after model tuning for maximal predictive power, provided explanation of the effectors ability to control the expression of individual genes, combinatorically, and individually. Solutions within the tested space could then be explored to address desirability.
# At this point, due to short duration of culture (only six days in vitro) we decided to focus on maximal expression of OLIG2 and maintenance of high expression of NKX2-2, while initiating expression of SOX10, OLIG1 and PDGFRa, to guide the cells towards oligodendrocyte fate (Emery and Lu (2015). Cold Spring Harb Perspect Biol. 7:a020461; Perlman et al. (2020). Glia 68:1291-1303; Goldman and Kuypers (2015) Development 142:3983-95). In one 8-factor model, the individual and combinatorial impact of CHIR99021 (a WNT pathway agonist), AGN193109 (an RA pathway antagonist), FGF-2 (an FGFR agonist), Purmorphamine (an SHH pathway agonist), AICAR (an AMPK agonist), GW3965 (an LXR pathway agonist), GW590735 (a PPAR-a agonist) and AZD3147 (a mTOR antagonist) on further differentiation of cells were tested.
# stage 1 pre-OPCs = assay: HD-DoE third 12-factor model for stage 2 (Purmorphamine with A 8301, Dexamethasone etc.); format: cell-based, human; details: optimized for OLIG2 at 644.6; positive impact
# Description: (§1) To gain more information about the effect of Purmorphamine on differentiation of pre-OPCs to a more committed cell population, we tested this factor in two other models. In a 12-factor model, we included Purmorphamine, FGF2, AGN193109 and CHIR99021 along with 8 new inputs including TTNPB, Biotin, Insulin, propionate, DBZ, Yhhu3792, LDN193189 and Y-27632. […] In another 12-factor model, Purmorphamine was tested along with A 8301, CHIR99021, Dexamethasone, T3+T4, PD0325901, ZM336372, DBZ, BMP7, PD173074, SANT-1 and PDGF-AA.
# [3] = system: human pluripotent stem cells; assay: HD-DoE #2: 13-factor model, differentiation toward anterior neuroectoderm, gene expression; format: cell-based; details: dynamic profiling analysis, 13-factor model
# Description: To further enhance the conditions for oligodendrocyte differentiation from pluripotency, we performed an additional HD-DoE experiment. We obtained additional gene regulatory models that were used for preparation of a differentiation protocol. The basis of this was a 13-factor HD-DoE experiment with focus on initiation of differentiation of cells toward anterior neuroectoderm. In this model, we focused on expression of FEZF2 and OTX2.
# As shown in the results summarized in FIG. 4, the model was optimized for highest expression of OTX2 at 12755.9. According to the model of high expression of OTX2, seven effectors had positive contribution including MK2206, PD0325901, CHIR99021, LDN193189, Go6983, PD173074 and BLU9931 with highest factor contribution of 22.2 for MK2206 and lowest factor contribution of 1.7 for PD173074 and BLU9931.
# As shown in the results summarized in FIG. 5, the model was optimized for highest expression of FEZF2 at 4466. When the model was optimized for maximum expression level of FEZF2, three effectors including LDN193189 with factor contribution of 19.5, PD0325901 with factor contribution of 14.6 and MK2206 with factor contribution of 12.3 were common with previous condition and three new effectors including purmorphamine-500 nM, XAV939 and SC79 were introduced.
# As shown in the results summarized in FIG. 6, to fine-tune the recipe and find the optimum combination of factors for high expression of both OTX2 and FEZF2, dynamic profiling analysis was done. […] Therefore, these two factors were added to the optimized culture recipe.
# OPCs [4] = assay: HD-DoE 8-factor model for stage 4 on OPCs; format: cell-based, human; details: optimized for maximal expression of CNP at 1339; positive
# Description: (§2) To engineer the recipe of stage 4 of differentiation, 48 or 96 different combinations of effectors generated using Design-of-Experiments compression through D-optimality were robotically prepared. The effector combinations were prepared in a basal media and were subsequently added to the cells, which were treated with the stage 1, stage 2 and stage 3 differentiation media as described in the earlier examples to generate OPCs. […] Solutions within the tested space could then be explored to address desirability.
# OPCs [5] = assay: HD-DoE 12-factor model for stage 4 on OPCs, 6 days in culture; format: cell-based, human; details: optimized for PLP1 at 3600; negative impact
# Description: as §2, with “desirability. […] Benarroch (2009) Neurology 72:1779-1785; Shi et al. (2019) Exp Ther Med, 18:1258-1266).” for “desirability.”
# pre-OPCs [6] = assay: HD-DoE second 12-factor model for stage 2 (Purmorphamine with TTNPB, Biotin, Insulin etc.); format: cell-based, human; details: optimized for OLIG2 at 3299.4; positive impact
# Description: as §1
# [7] = optimized for maximum expression of OLIG1 at 454.7
# [8] = optimized for maximum expression of OLIG2 at 3325
Compound,impact on the expression level of SOX10 [1],factor contribution (pre-OPCs [2]; [7]),factor contribution (pre-OPCs [2]; [8]),factor contribution (stage 1 pre-OPCs),effect on expression of FEZF2 [3],impact on expression level of OTX2 [3],factor contribution (OPCs [4]),factor contribution (OPCs [5]),factor contribution (pre-OPCs [6])
"FGF2: FGF pathway activator, an FGFR agonist",positive impact,9.9,5.2,–,–,–,–,–,–
c1ccc2c(Oc3nc(Nc4ccc(N5CCOCC5)cc4)c4ncn(C5CCCCC5)c4n3)cccc2c1 [Purmorphamine],–,22.75,7.39,16.9,significant positive effects,no negative impact,10,10,13 and 13.03

# From patent US12729368B2, “Methods and compositions for generating oligodendrocyte progenitor cells” (Trailhead Biosystems Inc., priority 2022, dated 2026)
